Results taken from PMC9917184, “Synthesis and Biological Evaluation of Potential Oncoimmunomodulator Agents” (International Journal of Molecular Sciences, 2023).
Like-named read-outs stand apart in the source and are kept apart here.

How the values were obtained:
c-Myc = assay: Total c-Myc relative quantification by flow cytometry in cancer cell lines; assay type: cell-based, human; settings: 24 h
Protocol: (§1) The effect of these triazole derivates on c-Myc and PD-L1 was measured in three different cancer cell lines (HT-29, MCF-7, A-549) by flow cytometry. Thus, cells were incubated for 24 h with the corresponding compound at a concentration of 100 μM. Dimethyl sulfoxide (DMSO)-treated cells were used as the negative control, and a PD-L1 inhibitor, BMS-8 [29, 31], was used as a reference control. After permeabilization and fixation, cells were treated with anti-PD-L1 conjugated to AlexaFluor®647 and anti-c-Myc conjugated to fluorescein to determine the amount of both targets related to the negative control. Table 1 show the results in terms of the percentage of the detected target in relation to the negative control. This assay was carried out on cancer cell lines HT-29, MCF-7, and A-549.
(§2) To study the effect of the compounds on every biological target in cancer cell lines, the compounds were used at a 100 µM dose.
(§3) For the assay, 10^5 cells per well were incubated for 24 h with the corresponding dose of the tested compound in a total volume of 500 μL of their growth media.
(§4) To detect total PD-L1 and c-Myc, after the cell treatments, they were collected and fixed with 4% in PBS paraformaldehyde. After fixation, a treatment with 0,5% in PBS Triton™ X-100 was performed, and finally, cells were stained with FITC Mouse monoclonal Anti-c-Myc (ab223913) and Alexa Fluor® 647 Rabbit monoclonal Anti-PD-L1 (ab215251).

A-549 = A-549 cell viability in co-culture with Jurkat T cells (flow cytometry count); assay type: cell-based, human; settings: 24 h; for viability at 100 µM: Homo sapiens, A549, A-549/Jurkat T co-culture, IFN-γ stimulated, read-out: percentage of living A-549 cells relative to non-treated co-cultures; for inhibition rate of A-549 cell viability: co-cultured with Jurkat T cells, 100 μM
Protocol: (§5) The effect of the synthesized compounds on tumor cell proliferation in the presence of PD-1-expressing Jurkat T cells was also studied. This assay was carried out, as in the previous experiments, in the HT29, MCF7, and A549 cell lines (see Table 4). Interferon γ-stimulated cancer cells were treated for 24 h with the compounds at 100 μM in presence of Jurkat T cells. Then, cells were counted using flow cytometry. The percentage of living cells relative to non-treated co-cultures (control) was established for both cancer and immune cells in every co-culture.
(§6) To study the effect of the compounds on the cell viability in co-culture with Jurkat T cells or THP-1 cells, 10^5 or 2 × 10^5 of the corresponding cancer cells line per well were seeded and incubated for 24 h, then the medium was changed by one cell culture medium supplemented with IFN-γ (10 ng/mL; human, Invitrogen®) and containing 5 × 10^5 or 10^5 Jurkat T cells or THP-1, respectively, per well and 100 µM of the corresponding compound or DMSO for the […] control. After 24 h/48 h of incubation, supernatants were collected to determine Jurkat T or THP-1 living cells, and on the other hand, corresponding cancer cells were collected with trypsin. Both types of suspension cells were fixed with 4% in PBS paraformaldehyde and counted by flow cytometry.

HT-29 = HT-29 cell viability in co-culture with Jurkat T cells (flow cytometry count); assay type: cell-based, human; settings: 24 h; for viability at 100 µM: Homo sapiens, HT-29/Jurkat T co-culture, IFN-γ stimulated, read-out: percentage of living HT-29 cells relative to non-treated co-cultures
Protocol: as §5, §6

MCF-7 = MCF-7 cell viability in co-culture with Jurkat T cells (flow cytometry count); assay type: cell-based, human; settings: 24 h; for viability at 100 µM: Homo sapiens, MCF7, MCF-7/Jurkat T co-culture, IFN-γ stimulated, read-out: percentage of living MCF-7 cells relative to non-treated co-cultures; for inhibition rate of MCF-7 cell viability: co-cultured with Jurkat T cells, 100 μM
Protocol: as §5, §6

Jurkat T cells = assay: Jurkat T cell viability in co-culture with cancer cells (flow cytometry count); assay type: cell-based; settings: Homo sapiens, 24 h, read-out: percentage of living Jurkat cells relative to non-treated co-cultures
Protocol: as §5, §6

membrane VEGFR-2 = assay: Membrane VEGFR-2 relative quantification by flow cytometry in cancer cells co-cultured with Jurkat T cells; assay type: cell-based, human; settings: 100 μM, 24 h, relative to non-treated co-cultures
Protocol: (§7) We determined by flow cytometry the effect of these compounds on the expression of membrane PD-L1 in cancer cells when they were co-cultured with immune cells. Thus, interferon γ-stimulated cancer cells were treated for 24 h with the compounds at 100 μM in presence of Jurkat T cells. Then, cells were fixed and treated with anti-PD-L1 conjugated to AlexaFluor®647. We took advantage of the versatility of flow cytometry to simultaneously measure the expression of membrane VEGFR-2 by using anti-VEGFR-2 conjugated to fluorescein.
(§8) To study the effect of the compounds on every biological target in co-cultured cancer cell lines, the compounds were incubated for 24h as described before.
(§9) To detect membrane PD-L1 and VEGFR-2, after the cell treatments, they were collected, fixed with 4% in PBS paraformaldehyde, and stained with FITC Mouse monoclonal Anti-Human VEGFR-2 (ab184903) and Alexa Fluor® 647 Rabbit monoclonal Anti-PD-L1 (ab215251).

membrane PD-L1 = biological target: T1, membrane PD-L1 (Homo sapiens, UniProt Q9NZQ7); assay: Membrane PD-L1 relative quantification by flow cytometry in cancer cells co-cultured with Jurkat T cells; assay type: cell-based; settings: Jurkat, 24 h; for remaining activity at 100 µM: relative to non-treated co-cultures, read-out: % PDL1 (membrane); for inhibition at 100 µM: HT-29 co-cultured with Jurkat T cells, read-out: membrane PD-L1 inhibition rate
T1 construct: Alexa Fluor® 647 Rabbit monoclonal Anti-PD-L1 (ab215251); endogenous in cells; host or cells: HT-29, MCF-7, A-549 (A17: MCF-7 only; A14: IFN-gamma-stimulated cancer cells co-cultured with Jurkat T cells)
T1 sequence (Q9NZQ7 19-290): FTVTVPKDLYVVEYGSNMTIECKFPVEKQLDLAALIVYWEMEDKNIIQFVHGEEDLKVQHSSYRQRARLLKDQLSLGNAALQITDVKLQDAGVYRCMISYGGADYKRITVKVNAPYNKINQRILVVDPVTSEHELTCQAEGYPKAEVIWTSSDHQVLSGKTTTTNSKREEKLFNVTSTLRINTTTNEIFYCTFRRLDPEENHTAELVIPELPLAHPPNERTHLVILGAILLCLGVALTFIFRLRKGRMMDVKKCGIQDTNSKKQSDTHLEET
Protocol: as §7, §8, §9

PD-L1 = PD-L1 (Homo sapiens, UniProt Q9NZQ7); assay: Total PD-L1 relative quantification by flow cytometry in cancer cell lines; assay type: cell-based; design: Alexa Fluor® 647 Rabbit monoclonal Anti-PD-L1 (ab215251); endogenous in cells; host or cells: HT-29; settings: 24 h, total PD-L1 relative to negative control (DMSO)
Sequence of PD-L1 (Q9NZQ7 19-290): as above
Protocol: as §1, §2, §3, §4

[1] = A-549, 100 µM, relative to negative control (DMSO)
[2] = HT-29, 100 µM, detected target relative to negative control (DMSO)
[3] = MCF-7, 100 µM, relative to negative control (DMSO)
[4] = A549 co-cultured with Jurkat T cells
[5] = HT29 co-cultured with Jurkat T cells
[6] = MCF7 co-cultured with Jurkat T cells

| SMILES | remaining activity at 100 µM (membrane PD-L1; [4]) | remaining activity at 100 µM (membrane PD-L1; [5]) | remaining activity at 100 µM (membrane PD-L1; [6]) | remaining activity at 100 µM (PD-L1; A549, A-549, 100 µM) | remaining activity at 100 µM (PD-L1; HT-29, 100 µM) | remaining activity at 100 µM (PD-L1; MCF7, MCF-7, 100 µM) | % c-Myc (c-Myc; [1]) | % c-Myc (c-Myc; [2]) | % c-Myc (c-Myc; [3]) | viability at 100 µM (A-549) | inhibition rate of A-549 cell viability (A-549) | viability at 100 µM (HT-29) | viability at 100 µM (MCF-7) | viability at 100 µM (Jurkat T cells; A-549/Jurkat T co-culture) | viability at 100 µM (Jurkat T cells; HT-29/Jurkat T co-culture) | viability at 100 µM (Jurkat T cells; MCF-7/Jurkat T co-culture) | %VEGFR2 (membrane) (membrane VEGFR-2; [4]) | %VEGFR2 (membrane) (membrane VEGFR-2; [5]) | %VEGFR2 (membrane) (membrane VEGFR-2; [6]) | inhibition rate of MCF-7 cell viability (MCF-7) | other results |
| --- | --- | --- | --- | --- | --- | --- | --- | --- | --- | --- | --- | --- | --- | --- | --- | --- | --- | --- | --- | --- | --- |
| COc1ccc(-c2cn(CCc3ccc(CCO)cc3)nn2)cc1 [Compound 10, 2-(4-(2-(4-(4-methoxyphenyl)-1H-1,2,3-triazol-1-yl)ethyl)phenyl)ethan-1-ol] | 84 ± 6% | 126 ± 7% | 48 ± 7% | 62 ± 14% | 82 ± 2% | 114 ± 9% | 126 ± 2% | 83 ± 8% | 91 ± 6% | 103 ± 4% | no activity | 145 ± 16% | 94 ± 2% | 100 ± 4% | 120 ± 23% | 148 ± 20% | 107 ± 1% | 94 ± 6% | 105 ± 3% |  |  |
| COc1ccc(C(OCCc2ccc(CCn3cc(-c4cccc(OC)c4)nn3)cc2)(c2ccccc2)c2ccc(OC)cc2)cc1 [Compound 11, 1-(4-(2-(bis(4-methoxyphenyl)(phenyl)methoxy)ethyl)phenethyl)-4-(3-methoxyphenyl)-1H-1,2,3-triazole] | 94 ± 1% | 104 ± 14% | 48 ± 7% | 104 ± 1% | 48 ± 4% | 108 ± 7% | 55 ± 4% | 50 ± 3% | 81 ± 2% | 102 ± 4% |  | 65 ± 6% | 50 ± 1% | 511 ± 86% | 76 ± 52% | 79 ± 13% | 85 ± 1% | 79 ± 10% | 92 ± 10% | half | c-Myc inhibition (c-Myc; HT-29, 100 μM): 50% |
| COc1cccc(-c2cn(CCc3ccc(CCO)cc3)nn2)c1 [Compound 12, 2-(4-(2-(4-(3-methoxyphenyl)-1H-1,2,3-triazol-1-yl)ethyl)phenyl)ethan-1-ol] | 77 ± 3% | 88 ± 5% | 41 ± 2% | 67 ± 8% | 157 ± 6% | 88 ± 1% | 113 ± 9% | 84 ± 2% | 81 ± 4% | 86 ± 2% | around 30% | 60 ± 3% | 78 ± 4% | 83 ± 6% | 104 ± 5% | 123 ± 11% | 99 ± 6% | 113 ± 4% | 103 ± 8% |  | inhibition rate of HT-29 cell viability (HT-29; co-cultured with Jurkat T cells, 100 μM): around 40% |

The next lines start with results.

| remaining activity at 100 µM (membrane PD-L1; [4]) | remaining activity at 100 µM (membrane PD-L1; [5]) | remaining activity at 100 µM (membrane PD-L1; [6]) | remaining activity at 100 µM (PD-L1; A549, A-549, 100 µM) | remaining activity at 100 µM (PD-L1; HT-29, 100 µM) | remaining activity at 100 µM (PD-L1; MCF7, MCF-7, 100 µM) | SMILES | % c-Myc (c-Myc; [1]) | % c-Myc (c-Myc; [2]) | % c-Myc (c-Myc; [3]) | viability at 100 µM (A-549) | inhibition rate of A-549 cell viability (A-549) | viability at 100 µM (HT-29) | viability at 100 µM (MCF-7) | viability at 100 µM (Jurkat T cells; A-549/Jurkat T co-culture) | viability at 100 µM (Jurkat T cells; HT-29/Jurkat T co-culture) | viability at 100 µM (Jurkat T cells; MCF-7/Jurkat T co-culture) | %VEGFR2 (membrane) (membrane VEGFR-2; [4]) | %VEGFR2 (membrane) (membrane VEGFR-2; [5]) | %VEGFR2 (membrane) (membrane VEGFR-2; [6]) | inhibition rate of MCF-7 cell viability (MCF-7) | other results |
| --- | --- | --- | --- | --- | --- | --- | --- | --- | --- | --- | --- | --- | --- | --- | --- | --- | --- | --- | --- | --- | --- |
| 83 ± 6% | 57 ± 12% | 33 ± 4% | 120 ± 5% | 102 ± 1% | 87 ± 6% | COc1ccc(C(OCCc2ccc(CCn3cc(-c4ccccc4OC)nn3)cc2)(c2ccccc2)c2ccc(OC)cc2)cc1 [Compound 13, 1-(4-(2-(bis(4-methoxyphenyl)(phenyl)methoxy)ethyl)phenethyl)-4-(2-methoxyphenyl)-1H-1,2,3-triazole] | 51 ± 2% | 68 ± 3% | 77 ± 5% | 103 ± 4% |  | 153 ± 15% | 43 ± 1% | 90 ± 2% | 110 ± 9% | 79 ± 5% | 80 ± 8% | 89 ± 2% | 120 ± 8% | around 60% | c-Myc inhibition rate (c-Myc; A-549, 100 μM): 50%; inhibition at 100 µM (membrane PD-L1): 40 to 50% |
| 85 ± 3% | 61 ± 3% | 80 ± 5% | 54 ± 7% | 138 ± 2% | 71% | COc1ccccc1-c1cn(CCc2ccc(CCO)cc2)nn1 [Compound 14, 2-(4-(2-(4-(2-methoxyphenyl)-1H-1,2,3-triazol-1-yl)ethyl)phenyl)ethan-1-ol] | 85 ± 10% | 67 ± 4% | 71 ± 5% | 78 ± 9% | around 30% | 67 ± 10% | 47 ± 1% | 109 ± 20% | 106 ± 9% | 127 ± 6% | 106 ± 1% | 97 ± 6% | 91 ± 6% | around 60% | inhibition at 100 µM (membrane PD-L1): 40 to 50% |
